Our source for the mutagenic call values is PubChem BioAssay AID1259407 (Chemical Carcinogenesis Research Information System (CCRIS), 2018).

The data set deals with CCRIS mutagenicity, Ames/micronucleus/aberration tests. Kind of data set: CCRIS mutagenicity studies.
[1] abbreviates: Test System: AMES SALMONELLA TYPHIMURIUM, Strain/Indicator: TA98, Metabolic Activation: NONE, Method: PREINCUBATION
Where [2] appears, read: Test System: AMES SALMONELLA TYPHIMURIUM, Strain/Indicator: TA100, Metabolic Activation: NONE, Method: PREINCUBATION

The structures appear in SMILES notation. Active and inactive are the calls of the source. How the calls were made is not given here.

On to `Nc1cc(Cl)ccc1O`, for which the mutagenic call is “active; positive (structural changes and ploidy). structural changes not dose related” (End Point: In vitro chromosomal aberrations, Test System: Chinese hamster lung (CHL/IU) cells, Metabolic Activation: Rat, Liver, S9, Phenobarbital and 5,6-benzoflavone); “inactive; negative” (Test System: AMES SALMONELLA TYPHIMURIUM, Strain/Indicator: TA97, Metabolic Activation: HAMSTER, LIVER, S-9, AROCLOR 1254 (10%), Method: PREINCUBATION); “inactive; negative” (Test System: AMES SALMONELLA TYPHIMURIUM, Strain/Indicator: TA97, Metabolic Activation: HAMSTER, LIVER, S-9, AROCLOR 1254 (30%), Method: PREINCUBATION); “inactive; negative” (Test System: AMES SALMONELLA TYPHIMURIUM, Strain/Indicator: TA97, Metabolic Activation: NONE, Method: PREINCUBATION); “inactive; negative” (Test System: AMES SALMONELLA TYPHIMURIUM, Strain/Indicator: TA97, Metabolic Activation: RAT, LIVER, S-9, AROCLOR 1254 (10%), Method: PREINCUBATION); “inactive; negative” (Test System: AMES SALMONELLA TYPHIMURIUM, Strain/Indicator: TA97, Metabolic Activation: RAT, LIVER, S-9, AROCLOR 1254 (30%), Method: PREINCUBATION). In addition, the mutagenic call is, setting by setting: (Test System: AMES SALMONELLA TYPHIMURIUM, Strain/Indicator: TA98, Metabolic Activation: HAMSTER, LIVER, S-9, AROCLOR 1254 (10%), Method: PREINCUBATION) “inactive; negative”; under setting [1], “inactive; negative”; (Test System: AMES SALMONELLA TYPHIMURIUM, Strain/Indicator: TA98, Metabolic Activation: RAT, LIVER, S-9, AROCLOR 1254 (10%), Method: PREINCUBATION) “inactive; negative”; (Test System: AMES SALMONELLA TYPHIMURIUM, Strain/Indicator: TA98, Metabolic Activation: RAT, LIVER, S-9, PHENOBARBITAL AND BETA-NAPHTHOFLAVONE, Method: PREINCUBATION) “inactive; negative”; (Test System: AMES SALMONELLA TYPHIMURIUM, Strain/Indicator: TA100, Metabolic Activation: HAMSTER, LIVER, S-9, AROCLOR 1254 (10%), Method: PREINCUBATION) “inactive; negative”; under setting [2], “inactive; negative”. Also, the mutagenic call is, setting by setting: (Test System: AMES SALMONELLA TYPHIMURIUM, Strain/Indicator: TA100, Metabolic Activation: RAT, LIVER, S-9, AROCLOR 1254 (10%), Method: PREINCUBATION) “inactive; negative”; (Test System: AMES SALMONELLA TYPHIMURIUM, Strain/Indicator: TA1535, Metabolic Activation: HAMSTER, LIVER, S-9, AROCLOR 1254 (5%), Method: PREINCUBATION) “active; positive”; (Test System: AMES SALMONELLA TYPHIMURIUM, Strain/Indicator: TA1535, Metabolic Activation: HAMSTER, LIVER, S-9, AROCLOR 1254 (10%), Method: PREINCUBATION) “active; positive”; (Test System: AMES SALMONELLA TYPHIMURIUM, Strain/Indicator: TA1535, Metabolic Activation: HAMSTER, LIVER, S-9, AROCLOR 1254 (30%), Method: PREINCUBATION) “active; positive”; (Test System: AMES SALMONELLA TYPHIMURIUM, Strain/Indicator: TA1535, Metabolic Activation: NONE, Method: PREINCUBATION) “inactive; negative”; (Test System: AMES SALMONELLA TYPHIMURIUM, Strain/Indicator: TA1535, Metabolic Activation: RAT, LIVER, S-9, AROCLOR 1254 (5%), Method: PREINCUBATION) “active; positive”. For the same compound, the mutagenic call by setting is: (Test System: AMES SALMONELLA TYPHIMURIUM, Strain/Indicator: TA1535, Metabolic Activation: RAT, LIVER, S-9, AROCLOR 1254 (10%), Method: PREINCUBATION) “active; positive”; (Test System: AMES SALMONELLA TYPHIMURIUM, Strain/Indicator: TA1535, Metabolic Activation: RAT, LIVER, S-9, AROCLOR 1254 (30%), Method: PREINCUBATION) “inactive; negative”; (Test System: AMES SALMONELLA TYPHIMURIUM, Strain/Indicator: TA1535, Metabolic Activation: RAT, LIVER, S-9, PHENOBARBITAL AND BETA-NAPHTHOFLAVONE, Method: PREINCUBATION) “inactive; negative”; (Test System: AMES SALMONELLA TYPHIMURIUM, Strain/Indicator: TA1537, Metabolic Activation: NONE, Method: PREINCUBATION) “inactive; negative”; (Test System: E. COLI, Strain/Indicator: WP2UVRA, Metabolic Activation: NONE, Method: PREINCUBATION) “inactive; negative”; (Test System: E. COLI, Strain/Indicator: WP2UVRA, Metabolic Activation: RAT, LIVER, S-9, PHENOBARBITAL AND BETA-NAPHTHOFLAVONE, Method: PREINCUBATION) “inactive; negative”.
Turning to `Nc1cccc2cccnc12`, the mutagenic call is, setting by setting: under setting [1], “active; positive”; (Test System: AMES SALMONELLA TYPHIMURIUM, Strain/Indicator: TA98, Metabolic Activation: RAT, LIVER, S-9, KANECHLOR 500 OR PHENOBARBITAL AND BETA-NAPHTHOFLAVONE, Method: PREINCUBATION) “active; positive”; under setting [2], “active; positive”; (Test System: AMES SALMONELLA TYPHIMURIUM, Strain/Indicator: TA100, Metabolic Activation: RAT, LIVER, S-9, KANECHLOR 500 OR PHENOBARBITAL AND BETA-NAPHTHOFLAVONE, Method: PREINCUBATION) “active; positive”; (Test System: AMES SALMONELLA TYPHIMURIUM, Strain/Indicator: TA100, Metabolic Activation: S-9, Method: PREINCUBATION) “active; positive”.
With `O.O.O=N[O-].O=N[O-].O=N[O-].O=N[O-].[K+].[K+].[Pt]`, the mutagenic call is, setting by setting: under setting [1], “inactive; negative”; (Test System: AMES SALMONELLA TYPHIMURIUM, Strain/Indicator: TA98, Metabolic Activation: RAT, LIVER, S-9, AROCLOR 1254, Method: PREINCUBATION) “inactive; negative”; under setting [2], “inactive; negative”; (Test System: AMES SALMONELLA TYPHIMURIUM, Strain/Indicator: TA100, Metabolic Activation: RAT, LIVER, S-9, AROCLOR 1254, Method: PREINCUBATION) “inactive; negative”.
On to `Fc1cc(F)c2cccnc2c1`, for which, under “Test System: AMES SALMONELLA TYPHIMURIUM, Strain/Indicator: TA100, Metabolic Activation: RAT LIVER S-9, PHENOBARBITAL AND 5,6-BENZOFLAVONE, Method: PREINCUBATION”, the mutagenic call is “active; positive”.
For `CNN(C)c1ccn([C@@H]2O[C@H](CO)[C@@H](O)[C@H]2O)c(=O)n1`, the mutagenic call (Test System: CHINESE HAMSTER V-79, Strain/Indicator: V-79/6-THIOGUANINE, Metabolic Activation: NONE, Method: REPLATING) is “inactive; negative”.
